Test results as given in article PMC5421785, “Citrullination only infrequently impacts peptide binding to HLA class II MHC” (PLoS ONE, 2017).
Where two headings read alike, the source gives them in different places. Ends that are not written are not given here.

Assays:
HLA-DRB1*01:01 = target: T1, HLA-DRB1*01:01 (Homo sapiens, UniProt P01903+P01911, A100R/D57E/F55L/F60I/F76Y/I96L/L162R/M171V/P40L/Q125E/R42F/V115G/Y59C); experiment: HLA class II peptide binding, inhibition of radiolabeled peptide binding to purified MHC; conditions: read-out: DRB1*01:01 binding capacity, WT peptide (IC50 nM)
T1 construct: EBV transformed homozygous cell lines were used as sources of MHC molecules; endogenous in cells; host or cells: EBV transformed homozygous cell lines

HLA-DRB1*04:01 = target: T2, HLA-DRB1*04:01 (Homo sapiens, UniProt P01903+P01911, A100K/A169T/F76Y/I96L/K127E/L162R/M171V/N62H/P40V/Q125Y/R42H/S133A/S149N/S66Y/V115G/V209L/W38E); experiment: as above; conditions: read-out: DRB1*04:01 binding capacity, WT peptide (IC50 nM)
T2 construct: EBV transformed homozygous cell lines were used as sources of MHC molecules; endogenous in cells; host or cells: EBV transformed homozygous cell lines

[1] = wild-type (unmodified Arg) 15-mer peptide, purified HLA-DRB1*01:01
[2] = wild-type (unmodified Arg) 15-mer peptide, purified HLA-DRB1*04:01

| Sequence | IC50 (HLA-DRB1*01:01; [1]) [nM] | IC50 (HLA-DRB1*04:01; [2]) [nM] | IC50 (HLA-DRB1*01:01) [nM] | IC50 (HLA-DRB1*04:01) [nM] |
| --- | --- | --- | --- | --- |
| AAGVKGDRGETGAVG [Collagen 1051 WT] | 1150 | 25200 | – | – |
| AANRNNDALRQAKQE [Vimentin 301 WT] | – | – | > 40000 | > 40000 |
| ADLSEAANRNNDALR [Vimentin 296 WT] | – | – | 4500 | 13900 |
| AGEPGERGLKGHRGF [Collagen 1121 WT] | 85 | > 40000 | – | – |
| AINTEFKNTRTNEKV [Vimentin 91 WT] | – | – | 1330 | 1340 |
| ANYQDTIGRLQDEIQ [Vimentin 356 WT] | 625 | 11500 | – | – |
| ARGAQGPPGATGFPG [Collagen 886 WT] | 32200 | > 40000 | – | – |
| ARLDLERKVESLQEE [Vimentin 216 WT] | – | – | 6310 | 17200 |
| ASRPSSSRSYVTTST [Vimentin 21 WT] | – | – | 7580 | 1030 |
| DALKGTNESLERQMR [Vimentin 331 WT] | 39900 | 18000 | – | – |
| DGLAGPKGAPGERGP [Collagen 521 WT] | 2240 | 36900 | – | – |
| DGPKGARGDSGPPGR [Collagen 926 WT] | 26700 | 27400 | – | – |
| DIMRLREKLQEEMLQ [Vimentin 181 WT] | – | – | 852 | > 40000 |
| DNASLARLDLERKVE [Vimentin 211 WT] | – | – | 7850 | 18800 |
| DNLAEDIMRLREKLQ [Vimentin 176 WT] | – | – | 4570 | > 40000 |
| DRGDVGEKGPEGAPG [Collagen 766 WT] | 729 | 21600 | – | – |
| DVRQQYESVAAKNLQ [Vimentin 271 WT] | – | – | 10 | 6370 |
| EEEMRELRRQVDQLT [Vimentin 151 WT] | – | – | 468 | 4350 |
| EEMLQREEAENTLQS [Vimentin 191 WT] | – | – | 704 | 11900 |
| EIATYRKLLEGEESR [Vimentin 396 WT] | 52 | 3520 | – | – |
| ELRRQVDQLTNDKAR [Vimentin 156 WT] | – | – | 568 | 5240 |
| ENGSPGPMGPRGLPG [Collagen 316 WT] | > 40000 | > 40000 | – | – |
| ERGFPGLPGPSGEPG [Collagen 991 WT] | 1280 | > 40000 | – | – |
| ERGLKGHRGFTGLQG [Collagen 1126 WT] | 29 | > 40000 | – | – |

| Sequence | IC50 (HLA-DRB1*01:01; [1]) [nM] | IC50 (HLA-DRB1*04:01; [2]) [nM] | IC50 (HLA-DRB1*01:01) [nM] | IC50 (HLA-DRB1*04:01) [nM] |
| --- | --- | --- | --- | --- |
| ERGRTGPAGAAGARG [Collagen 331 WT] | 1610 | > 40000 | – | – |
| ERKVESLQEEIAFLK [Vimentin 221 WT] | – | – | 103 | > 40000 |
| ERQMREMEENFAVEA [Vimentin 341 WT] | 11100 | 912 | – | – |
| FAVEAANYQDTIGRL [Vimentin 351 WT] | 611 | 564 | – | – |
| FKNTRTNEKVELQEL [Vimentin 96 WT] | – | – | 4450 | 1790 |
| FRQDVDNASLARLDL [Vimentin 206 WT] | – | – | 5260 | 144 |
| FSLADAINTEFKNTR [Vimentin 86 WT] | – | – | 68 | 12000 |
| GADGPPGRDGAAGVK [Collagen 1041 WT] | > 40000 | > 40000 | – | – |
| GAEGPPGPQGLAGQR [Collagen 966 WT] | > 40000 | > 40000 | – | – |
| GAQGLQGPRGLPGTP [Collagen 711 WT] | 352 | > 40000 | – | – |
| GDRGEAGAQGPMGPS [Collagen 1086 WT] | 9550 | > 40000 | – | – |
| GEESRISLPLPNFSS [Vimentin 406 WT] | 527 | 7570 | – | – |
| GGPGTASRPSSSRSY [Vimentin 16 WT] | – | – | 5230 | 39500 |
| GHRGFTGLQGLPGPP [Collagen 1131 WT] | 0.77 | 335 | – | – |
| GIAGAPGFPGPRGPP [Collagen 426 WT] | 239 | > 40000 | – | – |
| GIVGLPGQRGERGFP [Collagen 981 WT] | 6.4 | 2450 | – | – |
| GLPGAPGLRGLPGKD [Collagen 621 WT] | 810 | > 40000 | – | – |
| GPQGARGQPGVMGFP [Collagen 591 WT] | 44 | 2570 | – | – |
| GPRGERGFPGERGSP [Collagen 696 WT] | 11200 | > 40000 | – | – |
| GPSGKDGPKGARGDS [Collagen 921 WT] | > 40000 | > 40000 | – | – |
| GPTGVTGPKGARGAQ [Collagen 876 WT] | 952 | > 40000 | – | – |
| IDVDVSKPDLTAALR [Vimentin 256 WT] | – | – | 1490 | 21400 |
| KAGEKGLPGAPGLRG [Collagen 616 WT] | 363 | > 40000 | – | – |
| LAGQRGIVGLPGQRG [Collagen 976 WT] | 20 | 9280 | – | – |

| Sequence | IC50 (HLA-DRB1*01:01; [1]) [nM] | IC50 (HLA-DRB1*04:01; [2]) [nM] | IC50 (HLA-DRB1*01:01) [nM] | IC50 (HLA-DRB1*04:01) [nM] |
| --- | --- | --- | --- | --- |
| LGPREKGPDPLQYMR [Collagen 1226 WT] | 6720 | > 40000 | – | – |
| LGVMQGPMGPMGPRG [Collagen 196 WT] | 19 | > 40000 | – | – |
| LLAELEQLKGQGKSR [Vimentin 131 WT] | – | – | 248 | > 40000 |
| LPGARGLTGRPGDAG [Collagen 556 WT] | 851 | > 40000 | – | – |
| LPLVDTHSKRTLLIK [Vimentin 431 WT] | 641 | 5090 | – | – |
| LVAAVLRCQGQDVQE [Collagen 16 WT] | 21 | 4730 | – | – |
| MALDIEIATYRKLLE [Vimentin 391 WT] | 86 | 5590 | – | – |
| MARHLREYQDLLNVK [Vimentin 376 WT] | 270 | 1780 | – | – |
| MIRLGAPQTLVLLTL [Collagen 1 WT] | 315 | 7130 | – | – |
| MSTRSVSSSSYRRMF [Vimentin 1 WT] | – | – | 408 | 491 |
| NDALRQAKQESTEYR [Vimentin 306 WT] | 15400 | > 40000 | – | – |
| NDKARVEVERDNLAE [Vimentin 166 WT] | – | – | 524 | 884 |
| NDRFANYIDKVRFLE [Vimentin 111 WT] | – | – | 862 | 16400 |
| NTLQSFRQDVDNASL [Vimentin 201 WT] | – | – | 1840 | 408 |
| NYIDKVRFLEQQNKI [Vimentin 116 WT] | – | – | 72 | 824 |
| PGFPGPRGPPGPQGA [Collagen 431 WT] | > 40000 | > 40000 | – | – |
| PGIDMSAFAGLGPRE [Collagen 1216 WT] | 8.7 | 14100 | – | – |
| PGLQGMPGERGAAGI [Collagen 746 WT] | 14 | 1050 | – | – |
| PGLRGLPGKDGETGA [Collagen 626 WT] | 259 | > 40000 | – | – |
| PGPAGPTGKQGDRGE [Collagen 1076 WT] | > 40000 | > 40000 | – | – |
| PGQRGERGFPGLPGP [Collagen 986 WT] | 743 | > 40000 | – | – |
| PNFSSLNLRETNLDS [Vimentin 416 WT] | 538 | 6480 | – | – |
| PPGPQGPAGEQGPRG [Collagen 121 WT] | 22400 | > 40000 | – | – |
| PTGKQGDRGEAGAQG [Collagen 1081 WT] | 31000 | > 40000 | – | – |

| Sequence | IC50 (HLA-DRB1*01:01; [1]) [nM] | IC50 (HLA-DRB1*04:01; [2]) [nM] | IC50 (HLA-DRB1*01:01) [nM] | IC50 (HLA-DRB1*04:01) [nM] |
| --- | --- | --- | --- | --- |
| QAKQESTEYRRQVQS [Vimentin 311 WT] | 1500 | 17000 | – | – |
| QDGQRYNDKDVWKPE [Collagen 36 WT] | > 40000 | > 40000 | – | – |
| QGKSRLGDLYEEEMR [Vimentin 141 WT] | – | – | 34600 | > 40000 |
| QGPRGLPGTPGTDGP [Collagen 716 WT] | 10400 | > 40000 | – | – |
| REEAENTLQSFRQDV [Vimentin 196 WT] | – | – | 6560 | 6010 |
| REGSPGADGPPGRDG [Collagen 1036 WT] | > 40000 | > 40000 | – | – |
| REKLQEEMLQREEAE [Vimentin 186 WT] | – | – | 13800 | > 40000 |
| RGQPGVMGFPGPKGA [Collagen 596 WT] | 422 | > 40000 | – | – |
| RQVQSLTCEVDALKG [Vimentin 321 WT] | 2730 | 9140 | – | – |
| RSSVPGVRLLQDSVD [Vimentin 71 WT] | – | – | 261 | 4620 |
| RTYSLGSALRPSTSR [Vimentin 36 WT] | – | – | 11 | 769 |
| SAFAGLGPREKGPDP [Collagen 1221 WT] | 50 | > 40000 | – | – |
| SAVRLRSSVPGVRLL [Vimentin 66 WT] | – | – | 7.9 | 5060 |
| SKPDLTAALRDVRQQ [Vimentin 261 WT] | – | – | 5190 | > 40000 |
| SPGGVYATRSSAVRL [Vimentin 56 WT] | – | – | 7.2 | 1150 |
| SSRSYVTTSTRTYSL [Vimentin 26 WT] | – | – | 70 | 245 |
| STEYRRQVQSLTCEV [Vimentin 316 WT] | 138 | 600 | – | – |
| TAALRDVRQQYESVA [Vimentin 266 WT] | – | – | 771 | 6320 |
| TGFPGAAGRVGPPGS [Collagen 896 WT] | 431 | > 40000 | – | – |
| TGPKGARGAQGPPGA [Collagen 881 WT] | 17000 | > 40000 | – | – |
| THSKRTLLIKTVETR [Vimentin 436 WT] | 109 | 6220 | – | – |
| TIGRLQDEIQNMKEE [Vimentin 361 WT] | 13700 | 21800 | – | – |
| TLLIKTVETRDGQVI [Vimentin 441 WT] | 826 | 6020 | – | – |
| TNEKVELQELNDRFA [Vimentin 101 WT] | – | – | 5150 | 17900 |
